Assay results from patent US20070297980A1, “Geldanamycin and Derivatives Inhibit Cancer Invasion and Identify Novel Targets” (priority 2004, published 2007).
Entries after “also recorded” stand apart in the source; their conditions may differ.

How the values were obtained:
Met expression = assay: Western blot, Met expression; type: cell-based; parameters: effect on Met expression: dose or concentration left out as unconfirmed; conditions: for Met abundance upon acute challenge: 24 hrs, MDCKG1-G3 cells chronically exposed to MA; for effect on Met expression: MDCK and DBTRG cells
Method: (§1) Western Blot and Expression of Met and other Proteins. Cells were seeded in 60×15 mm dishes at 10^5 cells per dish. HGF/SF (100 ng/ml) was added to each dish 24 hr later. Immediately thereafter, serially diluted GA or MA was added to the relevant dishes at the concentrations indicated, and incubated for the indicated length of time before lysis. For Met and MAPK phosphorylation detection, 10^5 cells were seeded in 60×15 mm dishes and serum-starved for 24 hrs. After HGF/SF (100 ng/ml) stimulation, cells were lysed at 10 and 30 min. Control cells were not given HGF/SF. After cell lysis, protein concentration was determined by DC protein assay (Bio-Rad), and equal quantities of protein were loaded and separated by SDS-PAGE and transferred in a Western blot to PVDF membranes (Invitrogen). After blocking with 5% dry milk, membranes were blotted with specific antibodies.
After cells grew to 80% confluence, GA or MA, at various concentrations was added to the dishes. After 24 hours, cells were washed twice with PBS and lysed in TNESV buffer supplemented with Complete™ proteinase inhibitors (Roche Molecular Biochemicals). Protein concentration was determined by DC protein assay. Equal quantities of protein were used for Western blotting for Met and HSP90α. For pull-down assays, 20 μl of control or GA beads adjusted for equal concentrations were added to […] of extract and rotated at 4° C. overnight. Beads were recovered by low speed centrifugation and washed 3× with TNESV. Sixty μl 2× sample buffer was added to beads and boiled for 10 min. The samples were subjected to SDS-PAGE followed by Western blot analysis.

[1] = tested on: HGF/SF-induced Matrigel invasion by DBTRG cells; assay: In vitro Matrigel invasion assay, DBTRG; type: cell-based, human; conditions: even at pM-fM concentrations
Method: (§2) In Vitro Cell Invasion Assay. The in vitro invasion assay was performed as previously described by Jeffers et al., 1996, using a 24-well invasion chamber coated with GFR-Matrigel® (Becton Dickinson). Cells were suspended in DMEM/0.1% BSA and were plated in the invasion (upper) chamber (5−25×10^3 cells/well) (DBTRG 5,000, SNB19 and U373 25,000 cells/well). The lower chamber was filled with DMEM/0.1% BSA with or without the addition of HGF/SF (100 ng/ml). To evaluate GA inhibition, GA was serially diluted into both the upper and lower chambers at final concentrations 1 μM, to 1 fM as indicated and immediately after HGF/SF addition. After 24 h, cells remaining in the upper chamber were removed by scraping. The cells that invaded through the Matrigel® and attached to the lower surface of the insert were stained using Diff-Quik (Dade Behring Inc.) and counted under a light microscope.

[2] = tested on: HGF/SF-induced cell scattering in MDCKG3 cells; assay: Scatter assay, MDCKG3 cells (maintained in MA); type: cell-based, canine; conditions: MDCKG3 cells maintained in 3×10^−6 M MA; GA tested 10^−7 to 10^−15 M
Method: (§3) Scatter Assay. In parallel with assessing uPA activity, 96-well plates of MDCK cells were used to detect cell scattering. Cell preparation was same as above (plasmin assay) described above. At the same time as uPA activity was measured, the cells being assayed for scatter were fixed, stained (Diff-Quik Set, Dade Behring AG) and photographed.

[3] = tested on: HGF/SF-induced Matrigel invasion by U373 cells; assay: In vitro Matrigel invasion assay, U373; type: cell-based, human; conditions: even at pM-fM concentrations
Method: as §2

[4] = tested on: HGF/SF-induced uPA-plasmin activity in MDCK cells; assay: HGF/SF-Met-uPA-plasmin cell-based assay, MDCK cells; parameters: species or system canine; conditions: for concentration level at which HGF/SF-induced uPA activity is inhibited: words
Method: Cells were seeded in 96-well plates at 1500 cells/well (with the exception of SK-LMS-1 cells, which were seeded at 5000 cells/well) in order to detect color intensity, either with MTS (Promega) for cell growth determination or via Chromozyme PL (Boehringer Mannheim) for uPA-plasmin activity measurement. Cells were grown overnight in DMEM/10% FBS as described previously. Drugs were dissolved in DMSO and serially diluted from stock concentrations into DMEM/10% FBS medium and added to the appropriate wells. Immediately after drug or reagent addition, HGF/SF (60 ng/ml) was added to all wells (with the exception of wells used as controls to calculate basal growth and uPA-plasmin activity levels). Twenty-four hours after drug and HGF/SF addition, plates were processed for the determination of uPA-plasmin activity as follows: Wells were washed twice with DMEM (without phenol red; Life Technologies, Inc.), and 200 μl of reaction buffer [50% (v/v) 0.05 units/ml plasminogen in DMEM (without phenol red), 40% (v/v) 50 mM Tris buffer (pH 8.2), and 10% (v/v) 3 mM Chromozyme PL (Boehringer Mannheim) in 100 mM glycine solution] were added to each well.

[5] = tested on: HGF/SF-induced Matrigel invasion by SNB19 cells; assay: In vitro Matrigel invasion assay, SNB19; type: cell-based, human; conditions: even at pM-fM concentrations
Method: as §2

[6] = tested on: HGF/SF-induced uPA activity in U373 cells; assay: HGF/SF-Met-uPA-plasmin cell-based assay, U373 cells; parameters: species or system human
Method: (§4) HGF/SF-Met-uPA-Plasmin Cell-Based Assay (Webb et al., supra). Cells were seeded in 96-well plates at 1500 cells/well (with the exception of SK-LMS-1 cells, which were seeded at 5000 cells/well) in order to detect color intensity, either with MTS (Promega) for cell growth determination or via Chromozyme PL (Boehringer Mannheim) for uPA-plasmin activity measurement. Cells were grown overnight in DMEM/10% FBS as described previously. Drugs were dissolved in DMSO and serially diluted from stock concentrations into DMEM/10% FBS medium and added to the appropriate wells. Immediately after drug or reagent addition, HGF/SF (60 ng/ml) was added to all wells (with the exception of wells used as controls to calculate basal growth and uPA-plasmin activity levels). Twenty-four hours after drug and HGF/SF addition, plates were processed for the determination of uPA-plasmin activity as follows: Wells were washed twice with DMEM (without phenol red; Life Technologies, Inc.), and 200 μl of reaction buffer [50% (v/v) 0.05 units/ml plasminogen in DMEM (without phenol red), 40% (v/v) 50 mM Tris buffer (pH 8.2), and 10% (v/v) 3 mM Chromozyme PL (Boehringer Mannheim) in 100 mM glycine solution] were added to each well. […]

[7] = preliminary reports; Neckers et al; Sausville et al; cited from earlier work
[8] = tested on: HGF/SF-induced MDCK cell scattering; assay: Scatter assay, MDCK cells; type: cell-based, canine
Method: as §3

[9] = Egorin M J et al., 2002; cited from earlier work
MDCK cells = assay: Long-term culture of MDCK cells in macbecin II; type: cell-based, canine
Method: All compounds were first diluted in DMSO at 0.01M, separated into small stock aliquots (5 μl) and kept at −80° C. until use. When used, stocks were thawed and serially diluted with DMEM/10% FBS. For long term culture with MA, conditioned medium with the compound at 1, 2, or 3×10^−6 M was changed at least twice a week.

[10] = tested on: cell proliferation (DBTRG, U373, SNB19 cells); assay: Proliferation assay (MTS); type: cell-based, human; conditions: cell line not stated
Method: Proliferation Assay. In parallel with uPA-plasmin detection assay, cell proliferation in 96-well plates was detected with MTS. […] The plates were then incubated at 37° C., in a 5% CO2 atmosphere for 4 h. The absorbance was read on an automated spectrophotometric plate reader at 490 nm.

HSP90α = assay: GA-affinity bead pull-down (solid-phase binding assay); conditions: MDCK and DBTRG lysates
HSP90α expression = assay: Western blot, HSP90α expression; type: cell-based; conditions: MDCK and DBTRG cells
Method: as §1
After cells grew to 80% confluence, GA or MA, at various concentrations was added to the dishes. After 24 hours, cells were washed twice with PBS and lysed in TNESV buffer supplemented with Complete™ proteinase inhibitors (Roche Molecular Biochemicals). Protein concentration was determined by DC protein assay. Equal quantities of protein were used for Western blotting for Met and HSP90α. […]

[11] = tested on: uPA activity in DBTRG cells; assay: HGF/SF induction of uPA activity, DBTRG cells; type: cell-based, human; conditions: peak uPA induction after HGF/SF to basal
Method: as §4

[12] = tested on: uPA activity in PC-3 cells; assay: HGF/SF induction of uPA activity, PC-3 cells; type: cell-based, human; conditions: peak uPA induction after HGF/SF to basal
Method: as §4

[13] = tested on: uPA activity in SW1874 cells; assay: HGF/SF induction of uPA activity, SW1874 cells; type: cell-based, human; conditions: peak uPA induction after HGF/SF to basal
Method: (§5) Cells were seeded in 96-well plates at 1500 cells/well (with the exception of SK-LMS-1 cells, which were seeded at 5000 cells/well) in order to detect color intensity, either with MTS (Promega) for cell growth determination or via Chromozyme PL (Boehringer Mannheim) for uPA-plasmin activity measurement. Cells were grown overnight in DMEM/10% FBS as described previously. Drugs were dissolved in DMSO and serially diluted from stock concentrations into DMEM/10% FBS medium and added to the appropriate wells. Immediately after drug or reagent addition, HGF/SF (60 ng/ml) was added to all wells (with the exception of wells used as controls to calculate basal growth and uPA-plasmin activity levels). Twenty-four hours after drug and HGF/SF addition, plates were processed for the determination of uPA-plasmin activity as follows: Wells were washed twice with DMEM (without phenol red; Life Technologies, Inc.), and 200 μl of reaction buffer [50% (v/v) 0.05 units/ml plasminogen in DMEM (without phenol red), 40% (v/v) 50 mM Tris buffer (pH 8.2), and 10% (v/v) 3 mM Chromozyme PL (Boehringer Mannheim) in 100 mM glycine solution] were added to each well. […]

[14] = tested on: uPA activity in SK-LMS-1 cells; assay: HGF/SF induction of uPA activity, SK-LMS-1 cells; type: cell-based, human; conditions: peak uPA induction after HGF/SF to basal
Method: as §5

[15] = tested on: uPA activity in U87 cells; assay: HGF/SF induction of uPA activity, U87 cells; type: cell-based, human; conditions: peak uPA induction after HGF/SF to basal
Method: as §5

[16] = tested on: uPA activity in SNB19 cells; assay: HGF/SF induction of uPA activity, SNB19 cells; type: cell-based, human; conditions: peak uPA induction after HGF/SF to basal
Method: as §4

[17] = tested on: uPA activity in U118 cells; assay: HGF/SF induction of uPA activity, U118 cells; type: cell-based, human; conditions: peak uPA induction after HGF/SF to basal
Method: as §4

[18] = tested on: uPA activity in DU145 cells; assay: HGF/SF induction of uPA activity, DU145 cells; type: cell-based, human; conditions: peak uPA induction after HGF/SF to basal
Method: as §5

COC1=C2C[C@@H](C)C[C@H](OC)[C@H](O)[C@@H](C)/C=C(\C)[C@H](OC(N)=O)[C@@H](OC)/C=C\C=C(/C)C(=O)NC(=CC1=O)C2=O [Compound 1, (+)-Geldanamycin]
Met abundance upon acute challenge (Met expression; 10^−6 M GA): dramatic decreases | effect on Met expression (Met expression; GA at nM levels): downregulates | effect on HGF/SF-induced Matrigel invasion [1]: abolished | GA concentration at which scattering was again fully observed [2]: 10^−15 M | effect on HGF/SF-induced Matrigel invasion [3]: abolished | activity in HGF/SF-induced uPA-plasmin cell-based assays (words) ([4]; MDCK cells): active | effect on HGF/SF-induced Matrigel invasion [5]: abolished

CO[C@H]1[C@@H](OC)C[C@H](C)[C@@H](OC)C2=CC(=O)C=C(NC(=O)/C(C)=C/C=C\[C@H](C)[C@@H](OC(N)=O)/C(C)=C/[C@@H]1C)C2=O [Compound 2, Macbecin I, reference compound]
activity in HGF/SF-induced uPA-plasmin cell-based assays (words) ([4]; MDCK cells): inactive | activity in HGF/SF-induced uPA-plasmin cell-based assays (words) ([4]; MDCK cells, listed as macbecin I): poor activity

C[C@@H]1C[C@H]2O[C@@H]2/C=C\C=C\C(=O)Cc2c(Cl)c(O)cc(O)c2C(=O)O1 [Compound 3, Radicicol, reference compound]
activity in HGF/SF-induced uPA-plasmin cell-based assays (words) ([4]; MDCK cells): poor activity; also recorded: inactive | concentration level at which HGF/SF-induced uPA activity is inhibited [4]: only at nanomolar levels | concentration level at which HGF/SF-induced uPA activity is inhibited ([4]; listed as RA): only at nM or higher concentrations

C=CCNC1=C2C[C@@H](C)C[C@H](OC)[C@H](O)[C@@H](C)/C=C(\C)[C@H](OC(N)=O)[C@@H](OC)/C=C\C=C(/C)C(=O)NC(=CC1=O)C2=O [Compound 4, 17-Allylamino-17-demethoxygeldanamycin]
lowest concentration at which inhibitory effects on uPA activity observed ([6]; U373 cells): 10^−17 M | hepatic toxicity in clinical investigations [7]: dose-limiting | lowest concentration at which inhibitory effects on uPA activity observed ([4]; MDCK cells): 10^−17 M | activity in HGF/SF-induced uPA-plasmin cell-based assays (words) ([4]; MDCK cells): active | concentration range inhibiting HGF/SF-induced MDCK cell scattering ([8]; FIG. 10): pM to fM range

COC1/C=C\C=C(/C)C(=O)NC2=CC(=O)C(NCCN(C)C)=C(C[C@@H](C)C[C@H](OC)[C@H](O)[C@@H](C)/C=C(\C)[C@@H]1OC(N)=O)C2=O (some centres unmarked) [Compound 5, 17-(2-Dimethylaminoethyl)amino-17-demethoxygeldanamycin]
quantity not named in the sentence ("was essentially 100% when given i.p.") [9]: ~100%

CO[C@H]1/C=C\C=C(/C)C(=O)NC2=CC(=O)C(N3CCC3)=C(C[C@@H](C)C[C@H](OC)[C@H](O)[C@@H](C)/C=C(\C)[C@@H]1OC(N)=O)C2=O [Compound 14, 17-(1-Azetidinyl)-17-demethoxygeldanamycin]
activity in HGF/SF-induced uPA-plasmin cell-based assays (words) ([4]; MDCK cells): active

CO[C@H]1/C=C\C=C(/C)C(=O)NC2=CC(=O)C(N3CCC3)=C(C[C@@H](C)C[C@H](OC)[C@H](OC(C)=O)[C@@H](C)/C=C(\C)[C@@H]1OC(N)=O)C2=O [Compound 18, 11-O-Acetyl-17-(1-azetidinyl)-17-demethoxygeldanamycin]
activity in HGF/SF-induced uPA-plasmin cell-based assays (words) ([4]; MDCK cells): inactive

CO[C@H]1/C=C\C=C(/C)C(=O)NC2=CC(=O)C(N3CCC3)=C(C[C@@H](C)C[C@H](OC)[C@H](O)[C@@H](C)/C=C(\C)[C@@H]1O)C2=O [Compound 19, 17-(1-Azetidinyl)-7-decarbamyl-17-demethoxygeldanamycin]
activity in HGF/SF-induced uPA-plasmin cell-based assays (words) ([4]; MDCK cells): completely inactive

COc1c(O)cc2c(O)c1C[C@@H](C)C[C@H](OC)[C@H](O)[C@@H](C)/C=C(\C)[C@H](OC(N)=O)[C@@H](OC)/C=C\C=C(/C)C(=O)N2 [Compound 20, 17,21-Dihydrogeldanamycin]
activity in HGF/SF-induced uPA-plasmin cell-based assays (words) ([4]; MDCK cells): active

COC1CC(C)C(OC)c2cc(O)cc(c2O)NC(=O)/C(C)=C\C=C/C(C)C(OC(N)=O)/C(C)=C\C(C)C1OC (centres unmarked) [Compound 21, Macbecin II, reference compound]
Met abundance upon acute challenge (Met expression; 10^−5 M MA): less of a decrease | effect on Met expression (Met expression; at MA): downregulation | highest non-toxic concentration (MDCK cells; MDCK cells maintained for several months): 3 µM | MA concentration up to which MDCK cells continued to proliferate (MDCK cells; long-term culture): ≤ 3 µM | concentration level at which proliferation is inhibited [10]: nM levels | total HSP90α recovered with GA-affinity beads (HSP90α; cells treated with 10^−5 M MA): negligible levels | HSP90α available to the GA affinity beads (HSP90α; cells treated with 10^−6 M MA): reduced | effect on HSP90α expression (HSP90α expression): up-regulation | activity in HGF/SF-induced uPA-plasmin cell-based assays (words) ([4]; MDCK cells): inactive | activity in HGF/SF-induced uPA-plasmin cell-based assays (words) ([4]; MDCK cells, listed as macbecin II): poor activity | concentration level at which HGF/SF-induced uPA activity is inhibited [4]: only at nM or higher concentrations | effect on HGF/SF-induced scattering of MDCK cells ([8]; 3×10^−6 M MA): effectively blocked

HGF/SF: hepatocyte growth factor/scatter factor, ligand of the Met receptor tyrosine kinase
uPA activity induction (fold) [11]: 2.28 fold | uPA activity induction (fold) [12]: 1.00 fold | uPA activity induction (fold) ([6]; U373, peak uPA induction after HGF/SF to basal): 1.56 fold | uPA activity induction (fold) [13]: 0.97 fold | uPA activity induction (fold) [14]: 2.01 fold | uPA activity induction (fold) [15]: 1.04 fold | uPA activity induction (fold) ([4]; MDCK, peak uPA induction after HGF/SF (0-60 ng/ml, 24 h) to basal): 4.27 fold | uPA activity induction (fold) [16]: 1.95 fold | uPA activity induction (fold) [17]: 1.12 fold | uPA activity induction (fold) [18]: 1.06 fold
